Series [1] relates to HCV replicon cells Huh 9B. The class given is cell-based. Here is the method:
(§1) HCV replicon cells Huh 9B (ReBlikon), containing the firefly luciferase-ubiquitin-neomycin phosphotransferase fusion protein and EMCV-IRES driven HCV polyprotein with cell culture adaptive mutations.
A flask of cells was trypsinised and a cell count carried out. […] Wells G12 and H12 were left empty in the clear plate as the blank. Plates were then incubated at 37° C. in a 5% CO2 environment for 24 h.
(§2) On the following day compound dilutions are made up in medium at twice their desired final concentration in a clear round bottomed plate. All dilutions have a final DMSO concentration of 1%.
Exception: no compound was added to wells A1 and A2 of either plate and 100 μl of 1% DMSO was added to these instead. Plates were then incubated at 37° C. with 5% CO2 for 72 h.
The clear plate was stained with 100 μl 0.5% methylene blue in 50% ethanol at room temperature for 1 h, followed by solvation of the absorbed methylene blue in 100 μl per well of 1% lauroylsarcosine. Absorbance of the plate was measured on a microplate spectrophotometer (Molecular Devices) and the absorbance for each concentration of compound expressed as a proportion of the relative DMSO control.

The test system of series [2] is HCV replicon cells Huh 9B. Put plainly: HCV replicon assay (luciferase readout). The class given is cell-based. Here is the method:
as §1
Cells were cultured at 37° C. in a 5% CO2 environment and split twice a week on seeding at 2×10^6 cells/flask on day 1 and 1×10^6 3 days later. G418 at 0.5 mg/ml was added to the culture medium but not the assay medium.
The culture medium consisted of DMEM with […] glucose and glutamax (Gibco 61965-026) supplemented with 1× non-essential amino acids (Invitrogen 11140-035), penicillin (100 IU/ml)/streptomycin (100 μg/ml) (Invitrogen 15140-122), FCS (10%, 50 ml) and 1 mg/ml G418 (Invitrogen 10131-027) & 10% Australian foetal calf serum (Invitrogen 10099-141).
A flask of cells was trypsinised and a cell count carried out. Cells were diluted to 100,000 cells/ml and 100 μl of this used to seed one opaque white 96-well plate (for the replicon assay) and one flat-bottomed clear plate (for the tox assay) for every seven compounds to be tested for IC50. Wells G12 and H12 were left empty in the clear plate as the blank. Plates were then incubated at 37° C. in a 5% CO2 environment for 24 h.
as §2
Once the dilution plate had been made up, controls and compounds were transferred to the assay plate (containing the cells) at 100 μl /well in duplicate plates. Exception: no compound was added to wells A1 and A2 of either plate and 100 μl of 1% DMSO was added to these instead. Plates were then incubated at 37° C. with 5% CO2 for 72 h.
At the end of the incubation time, the cells in the white plate were harvested by washing 23.5 mM beetle luciferin (Promega E1603), 26 mM ATP (Sigma 0-2060) in […] Tris buffer pH 7.8 aliquoted and stored at −80 C was thawed and diluted 1:50 in luciferase assay buffer (20 mM Tricine (Sigma T-0377), 1.07 mM magnesium carbonate hydroxide (Sigma M-5671), 0.1 mM EDTA (Sigma E-5134), 2.67 mM MgSO4 (BDH 101514Y), 33.3 mM dithiothreitol (Sigma 150460) pH 7.8).
The M injector of the microplate luminometer (Lmax, Molecular Devices) was primed with 5×300 μl injections of the diluted substrate. After 5-60 min incubation in lysis buffer at room temperature, a plate was inserted into the luminometer and 100 μl luciferase assay reagent was added by the injector on the luminometer. The signal was measured using a 1 second delay followed by a 4 second measurement programme.
Background: In antiviral work, replicon cells carry a viral genome segment that copies itself.

The mark [3] stands for this setting: concentration reducing total cell area by 50% relative to DMSO controls, methylene blue, absorbance 620 nm, 72 h incubation.
The mark [4] stands for this setting: Hepatitis C virus, 72 h, concentration reducing replicon level (luciferase activity) by 50% vs untreated cell control, 72 h incubation.

Read-outs that look alike come from different tables or passages of the source. A value given as a limit tells only on which side of the number the result lay.

Data on 18 molecules can be found in patent US8008303B2, “Biphenyl derivatives and their use in treating hepatitis C” (AstraZeneca AB, priority 2005, dated 2011).

The IC50 is the concentration that gives 50% inhibition. Low readings indicate higher potency, high ones lower potency. `Cc1ccc(NC(=O)NC2CCCCC2)cc1-c1ccc(C(=O)Nc2ccc(CN3CCS(=O)(=O)CC3)cc2)cc1` [Example 189, 5′-(3-Cyclohexyl-ureido)-2′-methyl-biphenyl-4-carboxylic acid [4-(1,1-dioxo-1lambda*6*-thiomorpholin-4-ylmethyl)-phenyl]-amide]: the TD50 result in series [1] (setting [3]) was “* (* < 50 μM)”. This molecule also displayed a half-maximal inhibitory concentration (IC50) in series [2] (setting [4]) of less than 1 µM.

In the case of `O=C(Nc1ccc(CN2CCS(=O)(=O)CC2)cc1)c1ccc(-c2cc(NC(=O)C3CCCCC3)ccc2OC(F)(F)F)cc1` [Example 192, 5′-(Cyclohexanecarbonyl-amino)-2′-trifluoromethoxy-biphenyl-4-carboxylic acid [4-(1,1-dioxo-1lambda*6*-thiomorpholin-4-ylmethyl)-phenyl]-amide], in series [1] (setting [3]), the TD50 entry was “* (* < 50 μM)”. The molecule further had an IC50 in series [2] (setting [4]) of less than 1 µM.

In the case of `CCCC(=O)Nc1ccc(C)c(-c2ccc(C(=O)Nc3ccc(CN4CCS(=O)(=O)CC4)cc3)cc2)c1` [Example 182, 5′-Butyrylamino-2′-methyl-biphenyl-4-carboxylic acid [4-(1,1-dioxo-1lambda*6*-thiomorpholin-4-ylmethyl)-phenyl]-amide], the TD50 entry in series [1] (setting [3]) is reported as “* (* < 50 μM)”. This molecule also displayed an IC50 in series [2] (setting [4]) of less than 1 µM.

Take `Cc1ccc(C(=O)NCCC(C)C)cc1-c1ccc(C(=O)Nc2ccc(CN3CCS(=O)(=O)CC3)cc2)cc1` [Example 122, 6-Methyl-biphenyl-3,4′-dicarboxylic acid 4′-{[4-(1,1-dioxo-1lambda*6*-thiomorpholin-4-ylmethyl)-phenyl]-amide} 3-[(3-methyl-butyl)-amide]]: in series [1], the TD50 result was “* (key: * < 50 μM; ** > 50 μM)”. In addition, in series [2], the concentration for half-maximal inhibition (IC50) was less than 1 µM.

As to `COc1ccc(S(=O)(=O)Nc2ccc(N3CCOCC3)cc2)cc1-c1ccc(C(=O)Nc2ccc(CN3CCN(S(C)(=O)=O)CC3)cc2)cc1` [Example 245, 2′-Methoxy-5′-(4-morpholin-4-yl-phenylsulfamoyl)-biphenyl-4-carboxylic acid [4-(4-methanesulfonyl-piperazin-1-ylmethyl)-phenyl]-amide], the TD50 entry in series [1] (setting [3]) is on record as “* (* < 50 μM)”. This molecule also came in with an IC50 in series [2] (setting [4]) of less than 1 µM.

Turning to `CS(=O)(=O)N1CCN(Cc2ccc(NC(=O)c3ccc(-c4cc(C(=O)Nc5ccc(N6CCOCC6)cc5)ccc4OC(F)(F)F)cc3)cc2)CC1` [Example 256, 6-Trifluoromethoxy-biphenyl-3,4′-dicarboxylic acid 4′-{[4-(4-methanesulfonyl-piperazin-1-ylmethyl)-phenyl]-amide} 3-[(4-morpholin-4-yl-phenyl)-amide]], the TD50 entry in series [1] is recorded as “* (key: * < 50 μM; ** > 50 μM)”. The same molecule showed an IC50 in series [2] of less than 1 µM.

Take `Cc1ccc(NC(=O)CC2CC2)cc1-c1ccc(C(=O)Nc2ccc(CN3CCS(=O)(=O)CC3)cc2)cc1` [Example 178, 5′-(2-Cyclopropyl-acetylamino)-2′-methyl-biphenyl-4-carboxylic acid [4-(1,1-dioxo-1lambda*6*-thiomorpholin-4-ylmethyl)-phenyl]-amide]: in series [1] (setting [3]), the TD50 entry is “* (* < 50 μM)”. Further, in series [2] (setting [4]), the half-inhibitory concentration (IC50) was less than 1 µM.

Turning to `Cc1ccc(C(=O)Nc2ccc(N3CCOCC3)cc2)cc1-c1ccc(C(=O)Nc2ccc(CN3CCOCC3)cc2)cc1` [Example 74, 6-Methyl-biphenyl-3,4′-dicarboxylic acid 4′-[(4-morpholin-4-ylmethyl-phenyl)-amide] 3-[(4-morpholin-4-yl-phenyl)-amide]], the TD50 result in series [1] is “* (key: * < 50 μM; ** > 50 μM)”. The same molecule came in with a concentration for half-maximal inhibition (IC50) in series [2] of 1 to 5 µM.

As to `Cc1ccc(-c2noc(C(C)C)n2)cc1-c1ccc(C(=O)Nc2ccc(CN3CCS(=O)(=O)CC3)cc2)cc1` [Example 207, 5′-(5-Isopropyl-[1,2,4]oxadiazol-3-yl)-2′-methyl-biphenyl-4-carboxylic acid [4-(1,1-dioxo-1lambda*6*-thiomorpholin-4-ylmethyl)-phenyl]-amide], the TD50 result in series [1] (setting [3]) was “* (* < 50 μM)”. Besides, the IC50 in series [2] (setting [4]) was more than 5 µM.

In the case of `Cc1ccc(NC(=O)c2ccc(N3CCOCC3)cc2)cc1-c1ccc(C(=O)Nc2ccc(CN3CCS(=O)(=O)CC3)cc2)cc1` [Example 87, 2′-Methyl-5′-(4-morpholin-4-yl-benzoylamino)-biphenyl-4-carboxylic acid [4-(1,1-dioxo-1lambda*6*-thiomorpholin-4-ylmethyl)-phenyl]-amide], the TD50 entry in series [1] (setting [3]) is given as “** (** > 50 μM)”. The IC50 in series [2] (setting [4]) is less than 1 µM.

With `Cc1ccc(C(=O)Nc2ccc(N3CCOCC3)cc2)cc1-c1ccc(C(=O)Nc2cccc(CN3CCSCC3)c2)cc1` [Example 69, 6-Methyl-biphenyl-3,4′-dicarboxylic acid 3-[(4-morpholin-4-yl-phenyl)-amide] 4′-[(3-thiomorpholin-4-ylmethyl-phenyl)-amide]], the TD50 entry in series [1] was “* (key: * < 50 μM; ** > 50 μM)”. In series [2], the IC50 is less than 1 µM.

`Cc1ccc(NC(=O)c2ccco2)cc1-c1ccc(C(=O)Nc2ccc(CN3CCS(=O)(=O)CC3)cc2)cc1` [Example 153, Furan-2-carboxylic acid {4′-[4-(1,1-dioxo-1lambda*6*-thiomorpholin-4-ylmethyl)-phenylcarbamoyl]-6-methyl-biphenyl-3-yl}-amide]: the TD50 entry in series [1] (setting [3]) is “* (* < 50 μM)”. Besides, the half-inhibitory concentration (IC50) in series [2] (setting [4]) is less than 1 µM.

Consider `Cc1ccc(NC(=O)C2CCC2)cc1-c1ccc(C(=O)Nc2ccc(CN3CCS(=O)(=O)CC3)cc2)cc1` [Example 195, 5′-(Cyclobutanecarbonyl-amino)-2′-methyl-biphenyl-4-carboxylic acid [4-(1,1-dioxo-1lambda*6*-thiomorpholin-4-ylmethyl)-phenyl]-amide], for which the TD50 entry in series [1] (setting [3]) was “* (* < 50 μM)”. This molecule came in with an IC50 in series [2] (setting [4]) of less than 1 µM.

On to `COc1ccc(C(=O)Nc2ccc(N3CCOCC3)cc2)cc1-c1ccc(C(=O)Nc2ccc(CN3CCN(S(=O)(=O)N(C)C)CC3)cc2)cc1` [Example 259, 6-Methoxy-biphenyl-3,4′-dicarboxylic acid 4′-{[4-(4-dimethylsulfamoyl-piperazin-1-ylmethyl)-phenyl]-amide} 3-[(4-morpholin-4-yl-phenyl)-amide]], for which the TD50 entry in series [1] is given as “* (key: * < 50 μM; ** > 50 μM)”. Moreover, the concentration for half-maximal inhibition (IC50) in series [2] was less than 1 µM.

Regarding `Cc1ccc(NC(=O)c2ccc(CN3CCS(=O)(=O)CC3)cc2)cc1-c1ccc(C(=O)Nc2ccc(CN3CCS(=O)(=O)CC3)cc2)cc1` [Example 161, 5′-[4-(1,1-Dioxo-1lambda*6*-thiomorpholin-4-ylmethyl)-benzoylamino]-2′-methyl-biphenyl-4-carboxylic acid [4-(1,1-dioxo-1lambda*6*-thiomorpholin-4-ylmethyl)-phenyl]-amide], the TD50 entry in series [1] (setting [3]) was “* (* < 50 μM)”. For the same molecule, the IC50 in series [2] (setting [4]) was 1 to 5 µM.

As for `Cc1ccc(C(=O)Nc2ccc(N3CCOCC3)cc2)cc1-c1ccc(C(=O)Nc2ccc(CN3CCCCC3)cc2)cc1` [Example 73, 6-Methyl-biphenyl-3,4′-dicarboxylic acid 3-[(4-morpholin-4-yl-phenyl)-amide] 4′-[(4-piperidin-1-ylmethyl-phenyl)-amide]], the TD50 entry in series [1] is “* (key: * < 50 μM; ** > 50 μM)”. This molecule also displayed an IC50 in series [2] of less than 1 µM.

Consider `CN1CCN(Cc2ccc(NC(=O)c3ccc(-c4cc(NC(=O)C5CCCCC5)ccc4Cl)cc3)cc2)CC1` [Example 249, 2′-Chloro-5′-(cyclohexanecarbonyl-amino)-biphenyl-4-carboxylic acid [4-(4-methyl-piperazin-1-ylmethyl)-phenyl]-amide], for which the TD50 entry in series [1] (setting [3]) is on record as “* (* < 50 μM)”. For the same molecule, the IC50 in series [2] (setting [4]) fell in the range of 1 to 5 µM.

On to `Cc1ccc(NC(=O)C(C)(C)C)cc1-c1ccc(C(=O)Nc2ccc(CN3CCS(=O)(=O)CC3)cc2)cc1` [Example 184, 5′-(2,2-Dimethyl-propionylamino)-2′-methyl-biphenyl-4-carboxylic acid [4-(1,1-dioxo-1lambda*6*-thiomorpholin-4-ylmethyl)-phenyl]-amide], for which, in series [1] (setting [3]), the TD50 result was “* (* < 50 μM)”. In series [2] (setting [4]), the IC50 is less than 1 µM.
